How the values were obtained:
human mGluR1 = human mGluR1 (Homo sapiens (Human), UniProt Q13255); experiment: mGluR1 antagonism, L-glutamate induced intracellular calcium increase (FLIPR) in CHO cells stably expressing human mGluR1; format: cell-based; settings: for IC50: L-glutamate induced intracellular calcium, CHO cells expressing human mGluR1, FLIPR; for inhibition at 10 µM: CHO
Description: Activity of compounds of the present invention with respect to mGluR1 antagonism was examined by an assay based on measurements of L-glutamate induced intracellular calcium increases using a 96 well plate-based Fluorometric Imaging Plate Reader (FLIPR), and CHO cells stably expressing human mGluR1. L-glutamate induced robust calcium responses via human mGluR1 in a concentration-dependent manner and in the low micromolar range. The table below represents IC50 values of the inhibition of the glutamate-induced elevation of the intracellular calcium concentration.

human mGluR5a receptors = human mGluR5a receptors (Homo sapiens (Human), UniProt P41594); experiment: inhibition of glutamate-induced elevation of intracellular calcium in L(tk-) cells expressing human mGluR5a; format: cell-based; settings: for IC50: glutamate-induced intracellular calcium elevation, L(tk-) cells expressing human mGluR5a, read-out: mGluR5 IC50; for inhibition at 10 µM: LTK, read-out: mGluR5 % inhibition at 10 μM
Chain of human mGluR5a receptors (P41594 other isoform, or with tags, fused parts or gaps): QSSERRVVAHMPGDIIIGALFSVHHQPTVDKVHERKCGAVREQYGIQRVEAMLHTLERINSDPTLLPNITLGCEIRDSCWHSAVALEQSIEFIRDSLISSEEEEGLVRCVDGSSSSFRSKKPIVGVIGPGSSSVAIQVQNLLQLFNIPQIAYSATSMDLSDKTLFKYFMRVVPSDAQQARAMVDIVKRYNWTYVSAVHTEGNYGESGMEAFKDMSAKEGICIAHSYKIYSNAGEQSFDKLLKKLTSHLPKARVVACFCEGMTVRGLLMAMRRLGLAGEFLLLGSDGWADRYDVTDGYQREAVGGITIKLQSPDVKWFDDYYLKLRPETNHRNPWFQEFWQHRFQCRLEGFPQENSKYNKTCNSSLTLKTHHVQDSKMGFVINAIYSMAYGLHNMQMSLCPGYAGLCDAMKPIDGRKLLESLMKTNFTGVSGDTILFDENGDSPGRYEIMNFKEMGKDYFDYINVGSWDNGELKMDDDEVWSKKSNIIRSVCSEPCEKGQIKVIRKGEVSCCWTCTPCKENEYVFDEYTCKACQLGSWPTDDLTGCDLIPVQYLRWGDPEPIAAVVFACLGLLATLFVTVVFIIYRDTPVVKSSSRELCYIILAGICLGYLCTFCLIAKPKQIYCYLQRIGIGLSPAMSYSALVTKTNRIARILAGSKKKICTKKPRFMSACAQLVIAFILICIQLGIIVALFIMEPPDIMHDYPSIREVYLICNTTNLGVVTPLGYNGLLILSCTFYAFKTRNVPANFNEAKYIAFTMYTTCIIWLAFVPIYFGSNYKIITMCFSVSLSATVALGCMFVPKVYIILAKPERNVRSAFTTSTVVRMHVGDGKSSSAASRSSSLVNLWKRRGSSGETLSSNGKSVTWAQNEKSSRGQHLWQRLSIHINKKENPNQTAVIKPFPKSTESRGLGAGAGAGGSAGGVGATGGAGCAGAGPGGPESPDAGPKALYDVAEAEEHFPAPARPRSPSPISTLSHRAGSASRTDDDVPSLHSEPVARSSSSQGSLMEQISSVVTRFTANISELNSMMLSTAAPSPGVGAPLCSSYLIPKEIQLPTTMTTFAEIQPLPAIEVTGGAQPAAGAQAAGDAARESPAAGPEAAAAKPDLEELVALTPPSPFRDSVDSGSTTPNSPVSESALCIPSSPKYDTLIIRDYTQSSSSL
Description: Activity of compounds of the present invention was examined by determination to what extent the glutamate-induced elevation of the intracellular calcium concentration in L(tk-) cells expressing human mGluR5a receptors (see L. P. Daggett et al., Neuropharm. Vol. 34, pages 871-886, 1995) is inhibited by utilizing methods as described e.g. by L. P. Daggett et al., Neuropharm. Vol. 34, pages 871-886 (1995) and P. J. Flor et al., J. Neurochem. Vol. 67, pages 58-63 (1996).

Chain of human mGluR1 (Q13255 19-1194): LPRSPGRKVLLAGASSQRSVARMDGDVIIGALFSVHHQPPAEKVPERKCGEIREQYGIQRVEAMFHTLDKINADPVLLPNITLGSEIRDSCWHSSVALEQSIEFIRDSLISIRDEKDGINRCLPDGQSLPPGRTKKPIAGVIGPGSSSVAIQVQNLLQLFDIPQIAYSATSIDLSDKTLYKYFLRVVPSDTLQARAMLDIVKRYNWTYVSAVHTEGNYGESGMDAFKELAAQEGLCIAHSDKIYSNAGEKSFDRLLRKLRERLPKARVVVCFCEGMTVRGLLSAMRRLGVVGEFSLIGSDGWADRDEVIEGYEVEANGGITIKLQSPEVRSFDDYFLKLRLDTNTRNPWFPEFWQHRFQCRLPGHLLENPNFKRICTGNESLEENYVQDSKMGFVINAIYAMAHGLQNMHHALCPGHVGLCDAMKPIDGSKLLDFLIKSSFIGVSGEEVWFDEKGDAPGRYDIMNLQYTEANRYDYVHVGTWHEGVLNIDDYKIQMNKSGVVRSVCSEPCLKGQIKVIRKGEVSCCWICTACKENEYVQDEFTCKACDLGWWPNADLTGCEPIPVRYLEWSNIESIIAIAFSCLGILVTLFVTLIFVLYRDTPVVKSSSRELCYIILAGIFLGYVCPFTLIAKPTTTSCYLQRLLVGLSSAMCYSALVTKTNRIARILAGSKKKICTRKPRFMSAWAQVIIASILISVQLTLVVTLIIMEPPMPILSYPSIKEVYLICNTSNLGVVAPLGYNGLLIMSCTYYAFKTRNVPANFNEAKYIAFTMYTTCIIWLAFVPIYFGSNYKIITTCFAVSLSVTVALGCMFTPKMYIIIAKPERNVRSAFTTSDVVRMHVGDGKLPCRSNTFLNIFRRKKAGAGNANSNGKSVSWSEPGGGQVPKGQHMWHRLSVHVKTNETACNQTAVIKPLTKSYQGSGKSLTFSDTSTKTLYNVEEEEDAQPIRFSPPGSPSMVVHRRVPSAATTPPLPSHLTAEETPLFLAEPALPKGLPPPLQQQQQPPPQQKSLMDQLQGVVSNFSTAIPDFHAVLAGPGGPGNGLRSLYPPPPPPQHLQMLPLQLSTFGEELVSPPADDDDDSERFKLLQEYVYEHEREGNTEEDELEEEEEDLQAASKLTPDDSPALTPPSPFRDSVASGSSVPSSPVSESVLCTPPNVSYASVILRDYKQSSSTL

IC50 (human mGluR1) [nM] | IC50 (human mGluR5a receptors) [nM] | inhibition at 10 µM (human mGluR1) [%] | inhibition at 10 µM (human mGluR5a receptors) [%] | Compound
1300 | 167 |  |  | Cn1ccc(C2=NCC(=O)N3CCc4c(I)cccc4C3=C2)n1 [Example 31, 9-iodo-2-(1-methyl-1H-pyrazol-3-yl)-7,8-dihydro-[1,4]diazepino[7,1-a]isoquinolin-5(4H)-one]
1400 | 13 |  |  | COc1cc(C2=NCC(=O)N3CCc4c(I)cccc4C3=C2)ccn1 [Example 33, 9-iodo-2-(2-methoxypyridin-4-yl)-7,8-dihydro-[1,4]diazepino[7,1-a]isoquinolin-5(4H)-one]
93 | 41 |  |  | O=C1CN=C(c2ccoc2)C=C2c3cccc(I)c3CCN12 [Example 34, 2-(furan-3-yl)-9-iodo-7,8-dihydro-[1,4]diazepino[7,1-a]isoquinolin-5(4H)-one]
15 | 14 |  |  | CC(C)n1cc(C2=NCC(=O)N3CCc4c(I)cccc4C3=C2)cn1 [Example 35, 9-iodo-2-(1-isopropyl-1H-pyrazol-4-yl)-7,8-dihydro-[1,4]diazepino[7,1-a]isoquinolin-5(4H)-one]
6900 | 3800 |  |  | Cn1cnc(C2=NCC(=O)N3CCc4c(I)cccc4C3=C2)c1 [Example 36, 9-iodo-2-(1-methyl-1H-imidazol-4-yl)-7,8-dihydro-[1,4]diazepino[7,1-a]isoquinolin-5(4H)-one]
 | 5500 | 1 |  | COc1cccc2c1CCN1C(=O)CN=C(c3cnc4c(c3)OCCN4C)C=C21 [Example 36a, 9-methoxy-2-(4-methyl-3,4-dihydro-2H-pyrido[3,2-b][1,4]oxazin-7-yl)-7,8-dihydro-[1,4]diazepino[7,1-a]isoquinolin-5(4H)-one]
22 | 50 |  |  | C#Cc1cccc2c1CCN1C(=O)CN=C(c3cccs3)C=C21 [Example 38, 9-ethynyl-2-(thiophen-2-yl)-7,8-dihydro-[1,4]diazepino[7,1-a]isoquinolin-5(4H)-one]
1600 | 610 |  |  | N#Cc1cccc2c1CCN1C(=O)CN=C(c3cccs3)C=C21 [Example 39, 5-oxo-2-(thiophen-2-yl)-4,5,7,8-tetrahydro-[1,4]diazepino[7,1-a]isoquinoline-9-carbonitrile]
> 10000 | 5200 |  |  | Cn1ccc(C2=NCC(=O)N3CCc4c(C#N)cccc4C3=C2)n1 [Example 40, 2-(1-methyl-1H-pyrazol-3-yl)-5-oxo-4,5,7,8-tetrahydro-[1,4]diazepino[7,1-a]isoquinoline-9-carbonitrile]
3400 | 32 |  |  | CC(C)n1cc(C2=NCC(=O)N3CCc4c(cccc4-n4cccn4)C3=C2)cn1 [Example 42, 2-(1-isopropyl-1H-pyrazol-4-yl)-9-(1H-pyrazol-1-yl)-7,8-dihydro-[1,4]diazepino[7,1-a]isoquinolin-5(4H)-one]
> 10000 | 1600 |  |  | COCCOCc1cccc2c1CCN1C(=O)CN=C(c3cccc(OC)c3)C=C21 [Example 44, 9-((2-methoxyethoxy)methyl)-2-(3-methoxyphenyl)-7,8-dihydro-[1,4]diazepino[7,1-a]isoquinolin-5(4H)-one]
> 10000 | 700 |  |  | Cn1ccc(C2=NCC(=O)N3CCc4c(CO)cccc4C3=C2)n1 [Example 45, 9-(hydroxymethyl)-2-(1-methyl-1H-pyrazol-3-yl)-7,8-dihydro-[1,4]diazepino[7,1-a]isoquinolin-5(4H)-one]
2200 | 270 |  |  | Cn1cc(C2=NCC(=O)N3CCc4c(CO)cccc4C3=C2)cn1 [Example 46, 9-(hydroxymethyl)-2-(1-methyl-1H-pyrazol-4-yl)-7,8-dihydro-[1,4]diazepino[7,1-a]isoquinolin-5(4H)-one]
3400 | 71 |  |  | COC(C)c1cccc2c1CCN1C(=O)CN=C(c3ccn(C)n3)C=C21 (stereo not shown) [Example 47, 9-(1-methoxyethyl)-2-(1-methyl-1H-pyrazol-3-yl)-7,8-dihydro-[1,4]diazepino[7,1-a]isoquinolin-5(4H)-one]
2300 | 35 |  |  | COc1cccc(C2=NCC(=O)N3CCc4c(C(C)=O)cccc4C3=C2)c1 [Example 48, 9-acetyl-2-(3-methoxyphenyl)-7,8-dihydro-[1,4]diazepino[7,1-a]isoquinolin-5(4H)-one]
> 10000 | 1300 |  |  | COc1cccc(C2=NCC(=O)N3CCc4c(cccc4-c4ccccc4)C3=C2)c1 [Example 49, 2-(3-methoxyphenyl)-9-phenyl-7,8-dihydro-[1,4]diazepino[7,1-a]isoquinolin-5(4H)-one]
> 10000 | 46 |  |  | COc1cc(C2=NCC(=O)N3CCc4c(cccc4-c4ccccn4)C3=C2)ccn1 [Example 50, 2-(2-methoxypyridin-4-yl)-9-(pyridin-2-yl)-7,8-dihydro-[1,4]diazepino[7,1-a]isoquinolin-5(4H)-one]
> 10000 | 35 |  |  | O=C1CN=C(c2ccoc2)C=C2c3cccc(-c4ccncc4)c3CCN12 [Example 51, 2-(furan-3-yl)-9-(pyridin-4-yl)-7,8-dihydro-[1,4]diazepino[7,1-a]isoquinolin-5(4H)-one]
> 10000 | 66 |  |  | COc1cc(C2=NCC(=O)N3CCc4c(cccc4-c4cnccn4)C3=C2)ccn1 [Example 52, 2-(2-methoxypyridin-4-yl)-9-(pyrazin-2-yl)-7,8-dihydro-[1,4]diazepino[7,1-a]isoquinolin-5(4H)-one]
> 10000 | 7 |  |  | COc1cc(C2=NCC(=O)N3CCc4c(cccc4-c4ccc(F)nc4)C3=C2)ccn1 [Example 53, 9-(6-fluoropyridin-3-yl)-2-(2-methoxypyridin-4-yl)-7,8-dihydro-[1,4]diazepino[7,1-a]isoquinolin-5(4H)-one]
> 10000 | 11 |  |  | COc1cc(C2=NCC(=O)N3CCc4c(cccc4-c4ccncc4F)C3=C2)ccn1 [Example 54, 9-(3-fluoropyridin-4-yl)-2-(2-methoxypyridin-4-yl)-7,8-dihydro-[1,4]diazepino[7,1-a]isoquinolin-5(4H)-one]
> 10000 | 4900 |  |  | Cn1cnc(C2=NCC(=O)N3CCc4c(cccc4-c4ccncc4)C3=C2)c1 [Example 55, 2-(1-methyl-1H-imidazol-4-yl)-9-(pyridin-4-yl)-7,8-dihydro-[1,4]diazepino[7,1-a]isoquinolin-5(4H)-one]
 |  | 0 | 24 | Cc1cc(-c2cccc3c2CCN2C(=O)CN=C(c4ccn(C)n4)C=C32)ccn1 [Example 56, 2-(1-methyl-1H-pyrazol-3-yl)-9-(2-methylpyridin-4-yl)-7,8-dihydro-[1,4]diazepino[7,1-a]isoquinolin-5(4H)-one]
8900 |  |  | 26 | COc1cccc2c1CCN1C(=O)CN=C(c3cccc(O)n3)C=C21 [Example 58, 9-methoxy-2-(6-oxo-1,6-dihydropyridin-2-yl)-7,8-dihydro-[1,4]diazepino[7,1-a]isoquinolin-5(4H)-one]
6500 |  |  | 23 | COc1cccc(C2=NCC(=O)N3CCc4c(ccc(OC)c4OC)C3=C2)c1 [Example 59, 9,10-dimethoxy-2-(3-methoxyphenyl)-7,8-dihydro-[1,4]diazepino[7,1-a]isoquinolin-5(4H)-one]
 |  | 15 | 27 | COc1cccc2c1CCN1C(=O)CN=C(c3cc[nH]c(=O)c3)C=C21 [Example 60, 9-methoxy-2-(2-oxo-1,2-dihydropyridin-4-yl)-7,8-dihydro-[1,4]diazepino[7,1-a]isoquinolin-5(4H)-one]
3100 | 345 |  |  | COc1cccc2c1CCN1C(=O)CN=C(n3cnc(C(C)C)c3)C=C21 [Example 61, 2-(4-isopropyl-1H-imidazol-1-yl)-9-methoxy-7,8-dihydro-[1,4]diazepino[7,1-a]isoquinolin-5(4H)-one]
1600 | 595 |  |  | Cc1cn(C2=NCC(=O)N3CCc4c(Cl)cccc4C3=C2)cn1 [Example 62, 9-chloro-2-(4-methyl-1H-imidazol-1-yl)-7,8-dihydro-[1,4]diazepino[7,1-a]isoquinolin-5(4H)-one]

Compound | IC50 (human mGluR1) [nM] | IC50 (human mGluR5a receptors) [nM] | inhibition at 10 µM (human mGluR1) [%] | inhibition at 10 µM (human mGluR5a receptors) [%]
CCc1cccc2c1CCN1C(=O)CN=C(c3cccc(OC)c3)C=C21 [Example 37, 9-ethyl-2-(3-methoxyphenyl)-7,8-dihydro-[1,4]diazepino[7,1-a]isoquinolin-5(4H)-one] | 2200 | 77 |  | 
COc1cccc(C2=NCC(=O)N3CCc4c(cccc4N4CCOCC4)C3=C2)c1 [Example 41, 2-(3-methoxyphenyl)-9-morpholino-7,8-dihydro-[1,4]diazepino[7,1-a]isoquinolin-5(4H)-one] | > 10000 | 32 |  | 
COc1cccc(C2=NCC(=O)N3CCc4c(CN(C)C)cccc4C3=C2)c1 [Example 43, 9-((dimethylamino)methyl)-2-(3-methoxyphenyl)-7,8-dihydro-[1,4]diazepino[7,1-a]isoquinolin-5(4H)-one] | > 10000 | 685 |  | 
COc1cccc(C2=NCC(=O)N3CCc4c(cccc4C4CCCO4)C3=C2)c1 (stereo not shown) [Example 57, 2-(3-methoxyphenyl)-9-(tetrahydrofuran-2-yl)-7,8-dihydro-[1,4]diazepino[7,1-a]isoquinolin-5(4H)-one] | 4500 | 14 |  | 

Source: patent publication US8853203B2, “Diazepinone derivatives” (Novartis AG, priority 2012, dated 2014)
